The test system of experiment [1] is Fusarium oxysporum. Briefly: Synergistic Growth Inhibition Assay (MIC / FIC index, resazurin, 96-well) on Fusarium oxysporum. The experiment is classed as cell-based. How it is done: (§1) In some embodiments, the synergistic action between the pesticidal active ingredient, and the at least one C4-C10 (or alternatively C11 or C12) saturated or unsaturated aliphatic acid components of the pesticidal compositions according to embodiments of the present disclosure was tested using a Synergistic Growth Inhibition Assay, which is derived from and related to a checkerboard assay as is known in the art for testing of combinations of antimicrobial agents. In the Synergistic Growth Inhibition Assay used in accordance with some embodiments of the present disclosure, multiple dilutions of combinations of pesticidal active ingredient and at least one C4-C10 saturated or unsaturated aliphatic acid agents are tested in individual cells for inhibitory activity against a target pest or pathogenic organism. In one such embodiment, the combinations of pesticidal active ingredient and C4-C10 (or alternatively C11 or C12) saturated or unsaturated aliphatic acid agents may preferably be tested in decreasing concentrations. In a further such embodiment, the combinations of pesticidal active ingredient and C4-C10 (or alternatively C11 or C12) saturated or unsaturated aliphatic acid agents may be tested in increasing concentrations. These multiple combinations of the pesticidal active ingredient and at least one C4-C10 (or alternatively C11 or C12) saturated or unsaturated aliphatic acid agents may be prepared in 96-well microtiter plates. In one such embodiment, the Synergistic Growth Inhibition Assay then comprises rows which each contain progressively decreasing concentrations of the pesticidal active ingredient and one or more C4-C10 (or alternatively C11 or C12) saturated or unsaturated aliphatic acid agents to test for the MIC of the agents in combination at which growth of the target pest or pathogen is inhibited. Thus, each well of the microtiter plate is a unique combination of the two agents, at which inhibitory efficacy of the combination against the target pest or pathogen can be determined.
(§2) In one embodiment according to the present disclosure, for each row of microtiter cells in the Synergistic Growth Inhibition Assay, the FIC index is calculated from the lowest concentration of the pesticidal active ingredient and one or more C4-C10 saturated or unsaturated aliphatic acid agents necessary to inhibit growth of a target pest or pathogen. The FIC of each component is derived by dividing the concentration of the agent present in that well of the microtiter plate by the minimal inhibitory concentration (MIC) needed of that agent alone to inhibit growth of the target pest or pathogen. The FIC index is then the sum of these values for both agents in that well of the microtiter plate. The FIC index is calculated for each row as follows:
(§3) FICindex=MICa/MICA+MICb/MICB
(§4) Fractional inhibitory concentration indices may then used as measure of synergy. […] When the FIC index is equal to 1, the combination is additive.
(§5) Then, serial dilutions of these initial compositions in successive wells in the row of the microtiter plate were used to assay the pesticidal composition under the same conditions to determine the concentration of the composition combining the two agents corresponding to the microtiter well in which growth inhibition of the target pest or organism ceases.
Resazurin dye (also known as Alamar blue dye) was used as an indicator to determine the presence of growth or inhibition of growth of Fusarium oxysporum in the wells of the 96 well microtiter plates used in the exemplary Synergistic Growth Inhibition Assay. In addition to the color change of the resazurin dye in the presence of growth of the Fusarium oxysporum, an optical or visual examination of the microtiter well may also be made to additionally determine the presence of growth or inhibition of growth of the Fusarium oxysporum.
A general note: Resazurin is reduced to fluorescent resorufin, in cell work by metabolically active cells.

Experiment [2] has as its system Alternaria solani. Kind of experiment: Synergistic Growth Inhibition Assay (MIC / FIC index) on Alternaria solani. The conditions noted are these: for MIC: Alternaria solani, Compound B alone, read-out: MIC (B). It is filed as cell-based. Here is the method:
as §1, §2, §3, §4, §5
Alternatively, other suitable representative pest or pathogen organisms may be used to determine synergy of combinations of pesticidal active ingredient agents and one or more C4-C10 (or alternatively C11 or C12) saturated or unsaturated aliphatic acid agents in accordance with embodiments of the present disclosure. For example, other representative fungal pathogens may be used, such as but not limited to Leptosphaeria maculans, Sclerotinia spp. and Verticillium spp.

For experiment [3], the system named is Botrytis cinerea. Briefly: Synergistic Growth Inhibition Assay (MIC / FIC index, resazurin, 96-well) on Botrytis cinerea. It is filed as cell-based. The conditions noted are these: Botrytis cinerea, Botrytis cinerea. Here is the method: as §1, §2, §3, §4, §5
Similarly to as described above, Resazurin was used as an indicator of growth or inhibition of growth of Botrytis cinerea in the exemplary Synergistic Growth Inhibition Assay. In addition to the color change of the resazurin, an optical or visual examination of the microtiter well may also be made to additionally determine the presence of growth or inhibition of growth of the Botrytis cinerea.

Experiment [4] has as its system Trichoplusia ni. Kind of experiment: In-vitro insecticidal efficacy of Entrust SC (spinosad) with saturated and unsaturated aliphatic acids on artificial diet, Abbott and Colby formulae. Conditions: Entrust SC 0.034 ppm ([…] spinosad); aliphatic acid (salt) 500 ppm; Abbott-corrected. It is filed as in vivo, Trichoplusia ni (cabbage looper). Here is the method:
An artificial diet suitable for Trichoplusia ni (cabbage looper caterpillar) was prepared from a commercially available general purpose lepidoptera artificial diet premix (General Purpose Lepidoptera Diet available from Frontier Scientific Services, Newark, Del.) mixed in agar media and then heated to liquify the media. The liquid artificial diet media was then used to fill each well of a 96-well treatment plate with 200 uL of artificial diet media, which was allowed to solidify at room temperature and stored at approximately 4 C.
A 20 uL treatment sample of each treatment formulation was then placed on top of the solidified artificial diet media in each well of the 96 well plates and allowed to dry overnight. The following day, one neonate Trichoplusia ni (cabbage looper) larva (hatched from eggs obtained from the Natural Resource Canada insect research facility in Sault-Ste-Marie, ON, Canada) was added to each well of the plate, and their mortality rate was evaluated after 5 days, to determine the insecticidal efficacy of the Entrust® SC treatment alone, each exemplary unsaturated or saturated aliphatic acid (and salt) alone, and each combination of spinosad (as Entrust® SC) and unsaturated or saturated aliphatic acid (and salt). Each experiment contained 3 replicates.
While for SF<1, antagonism is present and for SF=1, the efficacy of the compounds is merely additive.

Experiment [5] has as its system Sclerotinia sclerotiorum. Briefly: Synergistic Growth Inhibition Assay (MIC / FIC index, resazurin, 96-well) on Sclerotinia sclerotiorum. The conditions noted are these: Sclerotinia sclerotiorum, […], Compound B = saturated aliphatic acid, incubation period of 7 days, read-out: MIC (B). The experiment is classed as cell-based. Here is the method: as §1, §2, §3, §4, §5
Similarly to as described above, Resazurin was used as an indicator of growth or inhibition of growth of Sclerotinia sclerotiorum in the exemplary Synergistic Growth Inhibition Assay. In addition to the color change of the resazurin, an optical or visual examination of the microtiter well may also be made to additionally determine the presence of growth or inhibition of growth of the Sclerotinia sclerotiorum.

Setting [6] is: Fusarium oxysporum, 48 h, Compound B alone, Fusarium oxysporum, 48 hours incubation, read-out: MIC (B).
Setting [7] is: Fusarium oxysporum, 96 h, Table 58, Compound B = saturated aliphatic acid, alone or in combination with oregano oil, incubation for 4 days, read-out: MIC (B).
Where [8] appears, read: 24 h, Table 75, Compound B = saturated aliphatic acid, alone or in combination with wintergreen oil, incubation period of 24 hours, read-out: MIC (B).
The mark [9] stands for this setting: 24 h, Table 78, Compound B = saturated aliphatic acid, alone or in combination with oregano oil, incubation period of 24 hours, read-out: MIC (B).

Like-named read-outs stand apart in the source and are kept apart here.

Broadly, the MIC is the least concentration at which growth counts as inhibited.

Consider `CCCCCCCCC(C)C(=O)O` (stereo not shown) [2-methyldecanoic acid], for which the MIC in experiment [1] (setting [6]) was found to be 62.5 µg/mL; in experiment [2] (7 days incubation), 1000 µg/mL; in experiment [2] (incubation period of 7 days), 125 µg/mL; in experiment [3] (48 h, Compound A alone, incubation period of 48 hours, read-out: MIC (A)) it was 15.6 µg/mL.
As to `CCCCCCC(C)C(=O)O` (stereo not shown) [2-methyloctanoic acid], the MIC turned out to be 156 µg/mL in experiment [1] (setting [6]), 625 µg/mL in experiment [2] (7 days incubation) and 156 µg/mL in experiment [2] (incubation period of 7 days).
`CCCCCCC=CCC(=O)O` [3-Decenoic acid, 3-decenoic acid]: the “MIC (B)” value in experiment [1] (Compound B (aliphatic acid) alone, Fusarium oxysporum, incubation period of 48 hours) turned out to be 312.5 µg/mL. Besides, the “Observed Efficacy, W (%)” value in experiment [4] worked out at 0%.
Regarding `CCCCCCCCCC(=O)O` [Decanoic acid, decanoic acid], the MIC in experiment [1] (Fusarium oxysporum, 24 h, Table 53, Compound B = saturated aliphatic acid, alone or in combination with wintergreen oil, incubation for 24 hours, read-out: MIC (B)) turned out to be 62.5 µg/mL; in experiment [1] (Fusarium oxysporum, 96 h, Compound B alone, incubation for 4 days, read-out: MIC (B)), 62.5 µg/mL. In experiment [4], the “Observed Efficacy, W (%)” value is recorded as 0%.
In the case of `CCCCCCC(=O)O` [Heptanoic acid, heptanoic acid], the MIC in experiment [1] (Fusarium oxysporum, 96 h, Table 54, Compound B = saturated aliphatic acid, alone or in combination with peppermint oil, incubation for 4 days, read-out: MIC (B)) came out at 312 µg/mL; in experiment [1] (Fusarium oxysporum, 96 h, Table 55, Compound B = saturated aliphatic acid, alone or in combination with spearmint oil, incubation for 4 days, read-out: MIC (B)) it was 156 µg/mL; in experiment [1] (setting [7]), 78.1 µg/mL; in experiment [5] (Table 68, alone or in combination with clove leaf oil), 78.1 µg/mL; in experiment [5] (Table 70, alone or in combination with rosemary oil), 78.1 µg/mL; in experiment [3] (setting [8]), 39.1 µg/mL. Moreover, the MIC in experiment [3] (setting [9]) came out at 78.1 µg/mL; in experiment [3] (96 h, Table 76, Compound B = saturated aliphatic acid, alone or in combination with spearmint oil, incubation period of 4 days, read-out: MIC (B)), 78.1 µg/mL. Also, in experiment [4], the “Observed Efficacy, W (%)” value was determined as 9.1%.
With `CCCCCC(=O)O` [Hexanoic acid, hexanoic acid], the minimal inhibitory concentration (MIC) turned out to be 78.1 µg/mL in experiment [1] (Fusarium oxysporum, 24 h, read-out: MIC (B), Table 51, Compound B = saturated aliphatic acid, alone or in combination with thyme oil, incubation for 24 hours); 156 µg/mL in experiment [1] (Fusarium oxysporum, 24 h, read-out: MIC (B), Table 52, Compound B = saturated aliphatic acid, alone or in combination with garlic oil, incubation for 24 hours); 156 µg/mL in experiment [1] (Fusarium oxysporum, 96 h, read-out: MIC (B), Table 54, Compound B = saturated aliphatic acid, alone or in combination with peppermint oil, incubation for 4 days); 156 µg/mL in experiment [1] (Fusarium oxysporum, 96 h, read-out: MIC (B), Table 58, Compound B = saturated aliphatic acid, alone or in combination with oregano oil, incubation for 4 days); 39.1 µg/mL in experiment [3] (24 h, read-out: MIC (B), Table 75, Compound B = saturated aliphatic acid, alone or in combination with wintergreen oil, incubation period of 24 hours); 156 µg/mL in experiment [3] (24 h, read-out: MIC (B), Table 78, Compound B = saturated aliphatic acid, alone or in combination with oregano oil, incubation period of 24 hours). For the same compound, the minimum inhibitory concentration (MIC) in experiment [3] (96 h, read-out: MIC (B), Table 74, Compound B = saturated aliphatic acid, alone or in combination with thyme oil, incubation period of 4 days) turned out to be 312 µg/mL; in experiment [3] (96 h, read-out: MIC (B), Table 76, Compound B = saturated aliphatic acid, alone or in combination with spearmint oil, incubation period of 4 days), 312 µg/mL. The “MIC (B)” value in experiment [3] (Compound B (aliphatic acid) alone, 2-fold dilutions, incubation period of 48 hours) is 78.12 µg/mL. For the same compound, the “Observed Efficacy, W (%)” value in experiment [4] came out at 27.3%.
`CCCCCCCCC(=O)O` [Nonanoic acid, nonanoic acid]: the MIC in experiment [1] (Fusarium oxysporum, 24 h, read-out: MIC (B), Table 53, Compound B = saturated aliphatic acid, alone or in combination with wintergreen oil, incubation for 24 hours) came out at 156 µg/mL; in experiment [1] (setting [7]) it was 78.1 µg/mL; in experiment [1] (Fusarium oxysporum, 96 h, read-out: MIC (B), Table 55, Compound B = saturated aliphatic acid, alone or in combination with spearmint oil, incubation for 4 days), 156 µg/mL; in experiment [3] (setting [8]), 39.1 µg/mL; in experiment [3] (setting [9]) it was 78.1 µg/mL. Besides, the “Observed Efficacy, W (%)” value in experiment [4] was 0%.
With `CCCCCCCC(=O)[O-].[K+]` [Octanoic acid, K-salt], the “Observed Efficacy, W (%)” value in experiment [4] was found to be 0%.
Take `CCCCCCCC(=O)O` [Octanoic acid, octanoic acid]: the “Observed Efficacy, W (%)” value in experiment [4] is 4.5%.
As to `CCCCCCC/C=C/C(=O)O` [Trans-2 decenoic acid], the “MIC (B)” value in experiment [3] (Compound B alone, incubation period of 48 hours) stood at 39.06 µg/mL. The “Observed Efficacy, W (%)” value in experiment [4] was determined as 0%.
As to `CCCCCC/C=C/C(=O)O` [Trans-2 nonenoic acid], in experiment [4], the “Observed Efficacy, W (%)” value is reported as 3.6%.
Still for that read-out and setting: to `CCCCCCCC/C=C/C(=O)O` [Trans-2 undecenoic acid] belongs 27.3%.
In the case of `CCC/C=C/C(=O)O` [Trans-2-hexenoic acid, trans-2-hexenoic acid], in experiment [1] (Compound B alone, 24 hour incubation), the “MIC (B)” value was found to be 312.5 µg/mL. The “Observed Efficacy, W (%)” value in experiment [4] was found to be 0%.
On to `CCCC/C=C/CC(=O)O` [Trans-3 octenoic acid], for which the “Observed Efficacy, W (%)” value in experiment [4] came to 4.5%.
Same read-out and setting: to `CC/C=C/CC(=O)O` [Trans-3-hexenoic acid, trans-3-hexenoic acid] belongs 0%.
Mancozeb [reference compound]: the “MIC (A)” value came out at 500 µg/mL in experiment [2] (Compound A alone, 7 days incubation) and 31.25 µg/mL in experiment [3] (Compound A alone, incubation period of 48 hours).

The values are drawn from patent US20210352895A1, “SYNERGISTIC PESTICIDAL COMPOSITIONS AND METHODS FOR DELIVERY OF ACTIVE INGREDIENTS” (0903608 B.C. Ltd., priority 2018, published 2021).
